Measured values from the supplement of paper PMC10307832.

What was measured:
Assay in all cases: relative viability (nuclei count vs DMSO), 5 days (fraction); higher = more cells survive
[1] = compound: C1=CC=C2C(=C1)C=CC(=C2SSC3=C(C=CC4=CC=CC=C43)O)O [IPA-3] + Cc1cc(Nc2cc(N3CCN(C)CC3)nc(Sc3ccc(NC(=O)C4CC4)cc3)n2)n[nH]1 [Tozasertib] (partner 0.1 µM)
Outline: (§1)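 Values are medians from duplicate plates. Each reflects relative viability, defined as the nuclei count of treated wells over that of vehicle wells. Lung cancer cell lines in 1536-well plates were pin-tool dosed one day after seeding with one drug alone or with a fixed anchor-drug dose plus five library-drug doses (not always all listed) in √10 steps, then fixed, stained and imaged at 4× after 5 days.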

[2] = compound: C1=CC=C2C(=C1)C=CC(=C2SSC3=C(C=CC4=CC=CC=C43)O)O [IPA-3] + O=C(c1cc(Cc2n[nH]c(=O)c3ccccc23)ccc1F)N1CCN(C(=O)C2CC2)CC1 [Olaparib] (partner 8 µM)
Outline: as §1

[3] = compound: Cc1ccc(-n2nc(C(C)(C)C)cc2NC(=O)Nc2ccc(OCCN3CCOCC3)c3ccccc23)cc1 [Doramapimod] + C[C@]1(O)C[C@@H](c2nc(-c3ccc4ccc(-c5ccccc5)nc4c3)c3c(N)nccn32)C1 [Linsitinib] (partner 1 µM)
Outline: as §1

[4] = compound: Cc1ccc(-n2nc(C(C)(C)C)cc2NC(=O)Nc2ccc(OCCN3CCOCC3)c3ccccc23)cc1 [Doramapimod] + N=C(N)NC(=N)NCCc1ccccc1 [Phenformin] (partner 250 µM)
Outline: as §1

Cell Line	relative viability ([1]; first compound 0.2 µM)	relative viability ([1]; first compound 0.6325 µM)	relative viability ([1]; first compound 2 µM)	relative viability ([1]; first compound 6.325 µM)	relative viability ([1]; first compound 20 µM)	relative viability ([2]; first compound 0.2 µM)	relative viability ([2]; first compound 0.6325 µM)	relative viability ([2]; first compound 2 µM)	relative viability ([2]; first compound 6.325 µM)	relative viability ([2]; first compound 20 µM)	relative viability ([3]; first compound 0.02 µM)	relative viability ([3]; first compound 0.06325 µM)	relative viability ([3]; first compound 0.2 µM)	relative viability ([3]; first compound 0.6325 µM)	relative viability ([3]; first compound 2 µM)	relative viability ([4]; first compound 0.02 µM)	relative viability ([4]; first compound 0.06325 µM)	relative viability ([4]; first compound 0.2 µM)	relative viability ([4]; first compound 0.6325 µM)	relative viability ([4]; first compound 2 µM)
NCI-H358	0.107	0.0935	0.11	0.0943	0.119	0.649	0.514	0.879	0.505	0.564	0.68	0.598	0.611	0.722	0.667	0.301	0.314	0.305	0.385	0.356
NCI-H1734	0.275	0.269	0.251	0.306	0.23	0.701	0.586	0.577	0.587	0.513	0.864	0.755	0.721	0.767	0.662	0.332	0.344	0.344	0.355	0.289
A-427	0.18	0.242	0.201	0.224	0.248	0.73	0.723	0.697	0.607	0.662	1.17	1.21	1.24		1.16	0.269	0.464	0.388		0.318
RERF-LC-KJ	0.513	0.452	0.471	0.456	0.403	0.92	0.942	0.982	0.771	0.424	0.871	0.912	0.899	0.952	0.864	0.401	0.443	0.395	0.472	0.458
NCI-H727	0.659	0.615	0.828	0.529	0.568	0.659	0.946	0.638	0.656	0.698	0.166	0.221	0.366	0.317	0.278	0.652	0.498	0.445	0.544	0.576
LCLC-97TM1	0.255	0.178	0.259	0.216	0.189	0.397	0.337	0.475	0.265	0.359	0.181	0.169	0.161	0.191	0.17	0.456	0.424	0.488	0.38	0.269
BEN	0.528	0.582	0.48	0.5	0.588	1.07	1.15	1.08	1.06	1.23	0.834	0.893	0.906	0.769	0.854	0.29	0.245	0.27	0.242	0.278
NCI-H2023	0.321	0.347	0.365	0.39	0.424	0.514	0.503	0.624	0.547	0.395	0.626	0.718	0.533	0.738	0.575	0.413	0.379	0.404	0.415	0.323
LC-2-ad	0.48	0.467	0.531	0.424	0.458	0.811	0.738	0.699	0.751	0.683	0.856	0.802	0.95	0.88	0.684	0.571	0.619	0.641	0.517	0.487
ABC-1	0.18	0.183	0.19	0.188	0.185	0.827	0.78	0.582	0.658	0.89	0.876	0.944	0.744	0.942	0.806	0.208	0.232	0.278	0.281	0.221
NCI-H647	0.463	0.298	0.266	0.415	0.161	0.725	0.496	0.59	0.196	0.0974	1.22	1.24	1.15	1.03	1.04	0.436	0.593	0.614	0.543	0.494
NCI-H1755	0.586	0.568	0.552	0.561	0.504	0.879	0.851	0.804	0.849	0.895	0.982	1	1.02	1.05	0.996	0.577	0.596	0.6	0.541	0.559
EPLC-272H	0.441	0.338	0.332	0.311	0.506	1.16	0.628	0.797	0.787	0.887	1.1	1.02	1.07	1.23	1.01	0.294	0.243	0.356	0.291	0.274
NCI-H1437	0.482	0.387	0.416	0.394	0.468	0.629	0.597	0.639	0.608	0.565	1.03	0.982	0.968	1.17	0.947	0.359	0.271	0.3	0.275	0.273
EKVX	0.463	0.42	0.447	0.375	0.422	0.942	0.934	0.787	0.774	0.86	1.03	0.972	0.902	1.15	0.95	0.256	0.24	0.253	0.179	0.204
NCI-H1651	0.727	0.613	0.883	0.708	0.691	0.198	0.187	0.189	0.179	0.178	0.92	0.844	0.923	0.977	0.917	0.323	0.317	0.348	0.415	0.45

Cell Line	relative viability ([1]; first compound 0.2 µM)	relative viability ([1]; first compound 0.6325 µM)	relative viability ([1]; first compound 2 µM)	relative viability ([1]; first compound 6.325 µM)	relative viability ([1]; first compound 20 µM)	relative viability ([2]; first compound 0.2 µM)	relative viability ([2]; first compound 0.6325 µM)	relative viability ([2]; first compound 2 µM)	relative viability ([2]; first compound 6.325 µM)	relative viability ([2]; first compound 20 µM)	relative viability ([3]; first compound 0.02 µM)	relative viability ([3]; first compound 0.06325 µM)	relative viability ([3]; first compound 0.2 µM)	relative viability ([3]; first compound 0.6325 µM)	relative viability ([3]; first compound 2 µM)	relative viability ([4]; first compound 0.02 µM)	relative viability ([4]; first compound 0.06325 µM)	relative viability ([4]; first compound 0.2 µM)	relative viability ([4]; first compound 0.6325 µM)	relative viability ([4]; first compound 2 µM)
HCC-15	0.61	0.367	0.457	0.431	0.442	0.842	0.699	0.694	0.741	0.728	0.846	0.863	0.889	0.944	0.806	0.481	0.467	0.478		0.365
LCLC-103H	0.582	0.528	0.577	0.443	0.539	0.765	0.693	0.78	0.681	0.789	0.99	1.06	1.09	1.09	1.03	0.322	0.345	0.298	0.322	0.32
NCI-H23	0.506	0.367	0.432	0.38	0.354	0.196	0.277	0.379	0.323	0.187	0.648	0.528	0.511	0.664	0.565	0.786	0.781	0.788	0.828	0.656
NCI-H596	0.968	0.907	1.11	1.02	1.04	0.638	0.708	0.773	0.768	0.748	0.99	1.03	1.02	1.05	1	0.672	0.689	0.672	0.795	0.703
NCI-H460	0.464	0.462	0.727	0.516	0.453	0.575	0.393	0.454	0.418	0.447	0.71	0.736	0.733	0.875	0.641	0.51	0.54	0.581	0.595	0.454
HCC-366	0.176	0.132	0.0972	0.141	0.0773	0.532	0.345	0.321	0.34	0.277	0.561	0.515	0.475	0.673	0.548	0.623	0.605	0.671	0.635	0.547
NCI-H2085	0.907	0.748	0.823	0.908	0.951	0.785	0.759	0.816	0.768	0.883	0.898	0.939	0.873	0.876	0.864	0.758	0.623	0.592	0.705	0.661
PC-14	0.693	0.612	0.647	0.539	0.649	0.286	0.29	0.335	0.222	0.134	1.01	1.03	0.981	0.931	0.9	0.662	0.721	0.809	0.762	0.475
HOP-62	0.388	0.312	0.395	0.382	0.402	0.848	0.401	0.47	0.392	0.274	0.88	1	1.17	0.91	0.992	0.685	0.706	0.753	0.682	0.646
NCI-H2087	0.273	0.349	0.274	0.221	0.253	0.685	0.631	0.642	0.474	0.763	0.976	1.13	0.939	0.962	0.951	0.403	0.459	0.411	0.415	0.412
NCI-H1793	0.316	0.271	0.368	0.377	0.425	0.699	0.773	0.923	0.893	1.2	0.758	0.76	0.827	0.932	0.719	0.365	0.346	0.346	0.381	0.256
PC-3 [JPC-3]	0.995	0.847	0.869	0.833	0.878	1.11	1.08	1.28	1.05	1.13	1.07	0.987	0.987	1.06	0.998	0.506	0.475	0.474	0.502	0.453
H3255	0.595	0.655	0.652	0.602	0.741	0.605	0.555	0.565	0.518	0.562	1.02	0.908	0.913	0.97	0.871	0.356	0.345	0.391	0.366	0.411
EMC-BAC-2	0.279	0.296	0.312	0.303	0.269	0.5	0.468	0.447	0.459	0.412	0.793	0.821	0.789	0.86	0.834	0.53	0.606	0.586	0.678	0.503
CAL-12T	0.371	0.301	0.384	0.343	0.297	0.749	0.693	0.72	0.668	0.678	0.806	0.804	0.745	0.851	0.627	0.552	0.593	0.621	0.625	0.479
NCI-H650	0.823	0.694	0.786	0.703	0.831	0.473	0.391	0.387	0.379	0.381	0.93	1.03	1.08	0.923	0.785	0.495	0.458	0.527	0.431	0.389
